How the values were obtained:
Assay type in all cases: biochemical
FGFR1 V561M = biological target: T1, FGFR1 V561M (Homo sapiens, UniProt P11362, V561M); assay: Assay I: inhibitory activity against FGFR mutants (HTRF KinEASE-TK); conditions: ATP 5 μM, substrate TK 1 μM
T1 construct: purchased Signalchem F04-13G
Protocol: (§1) Assay I: Determination of Inhibitory Activity Against FGFR Mutants
(§2) 1. Reagents and Equipment
(§3) 2.1 Preparation of 1× Kinase Reaction Buffer:
(§4) 1× Kinase reaction buffer was formulated with 1× volume of 5× kinase reaction buffer and 4× volume of water; 5 mM MgCl2; and 1 mM DTT.
(§5) 2.3 Screening of Compounds:
(§6) 1. Diluting a compound 4-fold in a dilution plate with DMSO, with a starting compound concentration of 2 mM.
(§7) 2. Diluting the compound 40-fold into 1× kinase reaction buffer and shaking it on a shaker for 20 minutes.
(§8) 5. Adding 1 μl of the compound diluted in buffer to each well, sealing the plate with a sealing membrane and centrifuging the plate at 1000 g for 30 seconds and leaving it at room temperature for 10 minutes.
(§9) 6. Formulating 2.5×TK-substrate-biotin and ATP mixture with 1× enzyme reaction buffer and adding 2 μl of K-substrate-biotin/ATP mixture to the reaction plate.
(§10) 7. Sealing the plate with a sealing membrane and centrifuging the plate at 1000 g for 30 seconds and allowing it to react at room temperature for 50 minutes.
(§11) 8. Formulating 4× Sa-XL 665 (250 nM) with HTRF assay buffer.
(§12) 9. Adding 5 μl Sa-XL 665 and 5 μl TK-Antibody-Cryptate to each well, centrifuging it at 1000 g for 30 seconds, and allowing it to react for 1 hour at room temperature.
(§13) 10. Reading fluorescence signals at 615 nm (Cryptate) and 665 nm (XL665) with Biotek.
(§14) 3.1 Calculation of the ratio for each well: the ratio was calculated as 665/615 nm.
(§15) 3.3 Calculation of IC50 and plotting of inhibition curves for the compounds.
(§16) The IC50 (half inhibition concentration) of a compound was obtained using the following non-linear fitting equation, wherein data analysis was performed using Graphpad 6.0 software.
(§17) Y=Bottom+(Top−Bottom)/(1+10^((Log IC50−X)*Hill Slope)) • X: log value of compound concentration; and Y: inhibition rate (% inh)
(§18) 3.4 Validation of Results
(§19) Data were exported from Envision and analyzed manually. The ratios were converted to inhibition rates and IC50 was calculated by Prism GraphPad 6.0 from the inhibition rates. IC50 was calculated again by the ratios to verify accuracy of the results.

FGFR2 V564F = biological target: T2, FGFR2 V564F (Homo sapiens, UniProt P21802, V564F); assay: as above; conditions: ATP 10 μM, substrate TK 1 μM
T2 construct: purchased Signalchem F05-12FG
T2 sequence (P21802 22-821 V564F): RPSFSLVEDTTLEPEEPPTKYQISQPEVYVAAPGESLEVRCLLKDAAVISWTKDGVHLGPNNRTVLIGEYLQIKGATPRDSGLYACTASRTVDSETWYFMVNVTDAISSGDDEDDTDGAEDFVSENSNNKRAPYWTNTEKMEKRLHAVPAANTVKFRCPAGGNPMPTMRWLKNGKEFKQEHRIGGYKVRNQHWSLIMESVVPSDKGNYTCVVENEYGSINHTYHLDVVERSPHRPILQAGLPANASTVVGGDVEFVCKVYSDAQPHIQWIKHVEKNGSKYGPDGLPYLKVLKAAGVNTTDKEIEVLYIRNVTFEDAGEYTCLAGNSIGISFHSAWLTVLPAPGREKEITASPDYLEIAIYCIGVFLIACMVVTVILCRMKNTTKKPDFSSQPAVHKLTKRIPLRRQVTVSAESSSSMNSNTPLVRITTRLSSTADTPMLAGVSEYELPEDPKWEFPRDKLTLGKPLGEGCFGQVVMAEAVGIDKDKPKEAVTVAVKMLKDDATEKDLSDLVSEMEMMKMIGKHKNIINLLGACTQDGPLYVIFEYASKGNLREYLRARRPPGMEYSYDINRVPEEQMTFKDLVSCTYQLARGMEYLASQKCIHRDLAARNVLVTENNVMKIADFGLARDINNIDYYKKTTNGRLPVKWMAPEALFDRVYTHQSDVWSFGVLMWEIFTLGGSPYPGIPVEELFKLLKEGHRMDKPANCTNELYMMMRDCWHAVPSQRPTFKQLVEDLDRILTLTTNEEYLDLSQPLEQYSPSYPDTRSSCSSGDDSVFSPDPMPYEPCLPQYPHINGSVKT
Protocol: as §1, §2, §3, §4, §5, §6, §7, §8, §9, §10, §11, §12, §13, §14, §15, §16, §17, §18, §19

FGFR3 V555M = biological target: T3, FGFR3 V555M (Homo sapiens, UniProt P22607, V555M); assay: as above; conditions: ATP 20 μM, substrate TK 1 μM
T3 construct: purchased Signalchem F06-12GG
T3 sequence (P22607 397-806 V555M limits assumed): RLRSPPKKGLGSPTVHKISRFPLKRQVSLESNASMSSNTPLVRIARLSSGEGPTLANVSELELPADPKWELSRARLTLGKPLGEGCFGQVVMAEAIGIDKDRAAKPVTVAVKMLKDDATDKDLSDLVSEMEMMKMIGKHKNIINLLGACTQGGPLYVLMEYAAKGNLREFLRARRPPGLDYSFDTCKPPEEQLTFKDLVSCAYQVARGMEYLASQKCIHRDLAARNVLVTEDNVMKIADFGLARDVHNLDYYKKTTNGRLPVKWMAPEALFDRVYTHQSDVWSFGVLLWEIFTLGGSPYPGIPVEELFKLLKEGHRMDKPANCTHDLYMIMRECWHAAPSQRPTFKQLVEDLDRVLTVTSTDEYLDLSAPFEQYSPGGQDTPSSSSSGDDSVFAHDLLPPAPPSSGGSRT
Protocol: as §1, §2, §3, §4, §5, §6, §7, §8, §9, §10, §11, §12, §13, §14, §15, §16, §17, §18, §19

VEGFR2 = biological target: T4, VEGFR2 (Homo sapiens, UniProt P35968); assay: Assay I: VEGFR2 kinase inhibition (HTRF KinEASE-TK); conditions: ATP 5 μM, substrate TK 1 μM
T4 construct: purchased Carna 08-191
T4 sequence (P35968 20-1356): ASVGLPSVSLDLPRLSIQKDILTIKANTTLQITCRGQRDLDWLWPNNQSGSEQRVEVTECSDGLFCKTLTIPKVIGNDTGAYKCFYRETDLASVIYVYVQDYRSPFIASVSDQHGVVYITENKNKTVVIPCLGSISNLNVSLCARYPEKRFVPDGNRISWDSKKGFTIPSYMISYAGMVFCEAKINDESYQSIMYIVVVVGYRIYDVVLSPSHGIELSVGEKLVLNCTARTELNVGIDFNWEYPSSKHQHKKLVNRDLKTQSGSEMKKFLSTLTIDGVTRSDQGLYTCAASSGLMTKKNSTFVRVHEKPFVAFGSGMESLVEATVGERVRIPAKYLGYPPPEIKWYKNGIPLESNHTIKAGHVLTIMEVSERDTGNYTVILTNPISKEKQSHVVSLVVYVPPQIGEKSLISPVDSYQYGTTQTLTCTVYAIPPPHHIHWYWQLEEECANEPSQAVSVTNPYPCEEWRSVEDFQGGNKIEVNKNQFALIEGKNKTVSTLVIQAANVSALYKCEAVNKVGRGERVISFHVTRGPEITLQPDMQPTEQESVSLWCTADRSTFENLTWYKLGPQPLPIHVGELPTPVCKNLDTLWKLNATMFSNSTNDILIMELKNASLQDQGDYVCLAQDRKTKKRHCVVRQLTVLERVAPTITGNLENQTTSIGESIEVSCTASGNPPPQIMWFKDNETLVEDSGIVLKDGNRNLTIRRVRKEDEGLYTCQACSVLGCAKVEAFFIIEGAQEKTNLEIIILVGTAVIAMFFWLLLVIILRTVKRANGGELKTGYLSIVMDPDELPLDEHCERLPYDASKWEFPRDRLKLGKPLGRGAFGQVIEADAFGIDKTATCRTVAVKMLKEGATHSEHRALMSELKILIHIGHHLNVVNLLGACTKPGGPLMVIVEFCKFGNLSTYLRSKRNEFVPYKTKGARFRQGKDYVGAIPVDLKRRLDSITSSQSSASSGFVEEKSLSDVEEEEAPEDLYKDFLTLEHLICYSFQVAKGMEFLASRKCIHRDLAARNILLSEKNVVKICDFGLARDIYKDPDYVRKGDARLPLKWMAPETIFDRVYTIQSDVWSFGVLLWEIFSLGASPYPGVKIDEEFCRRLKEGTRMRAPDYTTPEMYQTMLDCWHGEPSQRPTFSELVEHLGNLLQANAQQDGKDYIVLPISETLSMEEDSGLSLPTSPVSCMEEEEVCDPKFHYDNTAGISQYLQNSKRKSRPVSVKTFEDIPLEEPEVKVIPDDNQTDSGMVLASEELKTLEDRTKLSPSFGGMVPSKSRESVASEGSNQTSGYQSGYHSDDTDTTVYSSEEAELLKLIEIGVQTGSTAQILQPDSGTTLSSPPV
Protocol: as §1, §2, §3, §4, §5, §6, §7
3. Formulating 2×FGFR1 V561M/FGFR2 V564F/FGFR3 K650E/VEGFR2 with 1× of enzyme reaction buffer.
4. Adding 2 μl FGFR1 V561M/FGFR2 V564F/FGFR3 K650E/VEGFR2 kinase (formulated in step 3) to each well of the reaction plate.
as §8, §9, §10, §11, §12, §13, §14, §15, §16, §17, §18, §19
Positive control IC50 was within 3 times of the average value

T1 sequence (P11362 22-822 V561M): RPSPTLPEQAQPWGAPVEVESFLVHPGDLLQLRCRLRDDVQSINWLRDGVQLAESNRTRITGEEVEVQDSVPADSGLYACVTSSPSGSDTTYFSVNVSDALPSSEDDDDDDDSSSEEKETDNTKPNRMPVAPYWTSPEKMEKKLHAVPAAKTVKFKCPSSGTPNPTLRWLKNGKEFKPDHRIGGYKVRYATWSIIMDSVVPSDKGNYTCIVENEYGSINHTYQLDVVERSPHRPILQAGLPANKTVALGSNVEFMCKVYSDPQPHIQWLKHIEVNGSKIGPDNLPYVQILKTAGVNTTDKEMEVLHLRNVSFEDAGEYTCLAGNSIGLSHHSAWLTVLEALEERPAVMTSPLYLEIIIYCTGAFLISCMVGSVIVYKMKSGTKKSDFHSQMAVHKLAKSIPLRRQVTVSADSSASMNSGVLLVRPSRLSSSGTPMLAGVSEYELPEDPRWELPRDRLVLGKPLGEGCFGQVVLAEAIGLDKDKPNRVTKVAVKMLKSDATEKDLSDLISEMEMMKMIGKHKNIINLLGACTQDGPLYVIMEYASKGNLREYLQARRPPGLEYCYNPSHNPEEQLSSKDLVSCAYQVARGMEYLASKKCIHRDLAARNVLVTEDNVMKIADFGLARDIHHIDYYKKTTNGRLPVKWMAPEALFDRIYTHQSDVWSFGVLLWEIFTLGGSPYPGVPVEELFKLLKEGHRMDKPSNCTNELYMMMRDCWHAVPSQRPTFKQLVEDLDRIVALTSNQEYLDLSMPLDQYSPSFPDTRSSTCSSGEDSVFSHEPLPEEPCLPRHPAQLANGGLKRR

CC(Oc1ccc2[nH]nc(-c3nc4c([nH]3)CN(C(=O)CN3CCOCC3)C4)c2c1)c1c(Cl)cncc1Cl (stereo not shown) [Compound 13, 1-(2-(5-(1-(3,5-dichloropyridin-4-yl)ethoxy)-1H-indazol-3-yl)-4,6-dihydropyrrolo[3,4-d]imidazol-5(1H)-yl)-2-morpholinoethan-1-one]
IC50 (FGFR1 V561M): 0.46 nM
IC50 (FGFR2 V564F): 0.31 nM
IC50 (FGFR3 V555M): 0.22 nM
IC50 (VEGFR2): 5.5 nM

CC(Oc1ccc2[nH]nc(-c3nc4c([nH]3)CN(C3CCC(O)CC3)C4)c2c1)c1c(Cl)cncc1Cl (stereo not shown) [Compound 22, 4-(2-(5-(1-(3,5-dichloropyridin-4-yl)ethoxy)-1H-indazol-3-yl)-4,6-dihydropyrrolo[3,4-d]imidazol-5(1H)-yl)cyclohexan-1-ol]
IC50 (FGFR1 V561M): 1.8 nM
IC50 (FGFR2 V564F): 0.76 nM
IC50 (FGFR3 V555M): 0.91 nM
IC50 (VEGFR2): 11.7 nM

C[C@@H](Oc1ccc2[nH]nc(-c3nc4c([nH]3)CN(C(=O)CN3CCCCC3)C4)c2c1)c1c(Cl)cncc1Cl [Compound 50, (R)-1-(2-(5-(1-(3,5-dichloropyridin-4-yl)ethoxy)-1H-indazol-3-yl)-4,6-dihydropyrrolo[3,4-d]imidazol-5(1H)-yl)-2-(piperidin-1-yl)ethan-1-one]
IC50 (FGFR1 V561M): 1.2 nM
IC50 (FGFR2 V564F): 0.21 nM
IC50 (FGFR3 V555M): 0.35 nM
IC50 (VEGFR2): 8.4 nM

C[C@@H](Oc1ccc2[nH]nc(-c3nc4c([nH]3)CN(C(=O)CN3CC(O)C3)C4)c2c1)c1c(Cl)cncc1Cl [Compound 52, (R)-1-(2-(5-(1-(3,5-Dichloropyridin-4-yl)ethoxy)-1H-indazol-3-yl)-4,6-dihydropyrrolo[3,4-d]imidazol-5(1H)-yl)-2-(3-hydroxyazetidin-1-yl)ethan-1-one]
IC50 (FGFR1 V561M): 0.87 nM
IC50 (FGFR2 V564F): 0.16 nM
IC50 (FGFR3 V555M): 0.14 nM
IC50 (VEGFR2): 13.6 nM

CC(Oc1ccc2[nH]nc(-c3nc4c([nH]3)CN(C(=O)C3CC(O)C3)C4)c2c1)c1c(Cl)cncc1Cl (stereo not shown) [Compound 26, (2-(5-(1-(3,5-dichloropyridin-4-yl)ethoxy)-1H-indazol-3-yl)-4,6-dihydropyrrolo[3,4-d]imidazol-5(1H)-yl)(3-hydroxycyclobutyl)ketone]
IC50 (FGFR1 V561M): 0.38 nM
IC50 (FGFR2 V564F): 0.17 nM
IC50 (FGFR3 V555M): 0.13 nM
IC50 (VEGFR2): 7.1 nM

C[C@@H](Oc1ccc2[nH]nc(-c3nc4c([nH]3)CN(C3CCCN(C)C3)C4)c2c1)c1c(Cl)cncc1Cl (stereo partly drawn) [Compound 38, 5-((R)-1-(3,5-Dichloropyridin-4-yl)ethoxy)-3-(5-(1-methylpiperidin-3-yl)-1,4,5,6-tetrahydropyrrolo[3,4-d]imidazol-2-yl)-1H-indazole]
IC50 (FGFR1 V561M): 0.75 nM
IC50 (FGFR2 V564F): 0.19 nM
IC50 (FGFR3 V555M): 0.15 nM
IC50 (VEGFR2): 15.7 nM

C[C@@H](Oc1ccc2[nH]nc(-c3nc4c([nH]3)CN(C(=O)OC3CCN(C)C3)C4)c2c1)c1c(Cl)cncc1Cl (stereo partly drawn) [Compound 55, 1-Methylpyrrolidin-3-yl 2-(5-((R)-1-(3,5-dichloropyridin-4-yl)ethoxy)-1H-indazol-3-yl)-4,6-dihydropyrrolo[3,4-d]imidazole-5(1H)-carboxylate]
IC50 (FGFR1 V561M): 5.1 nM
IC50 (FGFR2 V564F): 0.34 nM
IC50 (FGFR3 V555M): 0.87 nM
IC50 (VEGFR2): 13.4 nM

CCOC(=O)N1Cc2nc(-c3n[nH]c4ccc(OC(C)c5c(Cl)cncc5Cl)cc34)[nH]c2C1 (stereo not shown) [Compound 23, Ethyl 2-(5-(1-(3,5-dichloropyridin-4-yl)ethoxy)-1H-indazol-3-yl)-4,6-dihydropyrrolo[3,4-d]imidazole-5(1H)-carboxylate]
IC50 (FGFR1 V561M): 1.2 nM
IC50 (FGFR2 V564F): 0.48 nM
IC50 (FGFR3 V555M): 1.3 nM
IC50 (VEGFR2): 85 nM

CC(C1CCN(C)CC1)N1Cc2nc(-c3n[nH]c4ccc(O[C@H](C)c5c(Cl)cncc5Cl)cc34)[nH]c2C1 (stereo partly drawn) [Compound 37, 5-((R)-1-(3,5-Dichloropyridin-4-yl)ethoxy)-3-(5-(1-(1-methylpiperidin-4-yl)ethyl)-1,4,5,6-tetrahydropyrrolo[3,4-d]imidazol-2-yl)-1H-indazole]
IC50 (FGFR1 V561M): 3.9 nM
IC50 (FGFR2 V564F): 0.68 nM
IC50 (FGFR3 V555M): 0.58 nM
IC50 (VEGFR2): 49.3 nM

CC(Oc1ccc2[nH]nc(-c3nc4c([nH]3)CN(S(=O)(=O)C3CC3)C4)c2c1)c1c(Cl)cncc1Cl (stereo not shown) [Compound 29, 3-(5-(Cyclopropylsulfonyl)-1,4,5,6-tetrahydropyrrolo[3,4-d]imidazol-2-yl)-5-(1-(3,5-dichloropyridin-4-yl)ethoxy)-1H-indazole]
IC50 (FGFR1 V561M): 1.2 nM
IC50 (FGFR2 V564F): 1.6 nM
IC50 (FGFR3 V555M): 0.7 nM
IC50 (VEGFR2): 64 nM

CC(Oc1ccc2[nH]nc(-c3nc4c([nH]3)CN(C3CC(O)C3)C4)c2c1)c1c(Cl)cncc1Cl (stereo not shown) [Compound 21, 3-(2-(5-(1-(3,5-dichloropyridin-4-yl)ethoxy)-1H-indazol-3-yl)-4,6-dihydropyrrolo[3,4-d]imidazol-5(1H)-yl)cyclobutan-1-ol]
IC50 (FGFR1 V561M): 0.97 nM
IC50 (FGFR2 V564F): 0.66 nM
IC50 (FGFR3 V555M): 0.64 nM
IC50 (VEGFR2): 26 nM

C[C@@H](Oc1ccc2[nH]nc(-c3nc4c([nH]3)CN(C(=O)CN3CC[C@@H](O)C3)C4)c2c1)c1c(Cl)cncc1Cl [Compound 41, 1-(2-(5-((R)-1-(3,5-Dichloropyridin-4-yl)ethoxy)-1H-indazol-3-yl)-4,6-dihydropyrrolo[3,4-d]imidazol-5(1H)-yl)-2-((R)-3-hydroxypyrrolidin-1-yl)ethan-1-one]
IC50 (FGFR1 V561M): 0.26 nM
IC50 (FGFR2 V564F): 0.23 nM
IC50 (FGFR3 V555M): 0.1 nM
IC50 (VEGFR2): 2.4 nM

COC(=O)N1Cc2nc(-c3n[nH]c4ccc(OC(C)c5c(Cl)cncc5Cl)cc34)[nH]c2C1 (stereo not shown) [Compound 17, Methyl 2-(5-(1-(3,5-dichloropyridin-4-yl)ethoxy)-1H-indazol-3-yl)-4,6-dihydropyrrolo[3,4-d]imidazole-5(1H)-carboxylate]
IC50 (FGFR1 V561M): 1.2 nM
IC50 (FGFR2 V564F): 0.74 nM
IC50 (FGFR3 V555M): 0.21 nM
IC50 (VEGFR2): 49 nM

CC(Oc1ccc2[nH]nc(-c3nc4c([nH]3)CN(C3CCN(C)CC3)C4)c2c1)c1c(Cl)cncc1Cl (stereo not shown) [Compound 3, 5-(1-(3,5-dichloropyridin-4-yl)ethoxy)-3-(5-(1-methylpiperidin-4-yl)-1,4,5,6-tetrahydropyrrolo[3,4-d]imidazol-2-yl)-1H-indazole]
IC50 (FGFR1 V561M): 0.65 nM
IC50 (FGFR2 V564F): 0.25 nM
IC50 (FGFR3 V555M): 0.67 nM
IC50 (VEGFR2): 5.4 nM

CC(Oc1ccc2[nH]nc(-c3nc4c([nH]3)CN(C(=O)CN(C)C)C4)c2c1)c1c(Cl)cncc1Cl (stereo not shown) [Compound 14, 1-(2-(5-(1-(3,5-dichloropyridin-4-yl)ethoxy)-1H-indazol-3-yl)-4,6-dihydropyrrolo[3,4-d]imidazol-5(1H)-yl)-2-(dimethylamino)ethan-1-one]
IC50 (FGFR1 V561M): 0.11 nM
IC50 (FGFR2 V564F): 0.09 nM
IC50 (FGFR3 V555M): 0.03 nM
IC50 (VEGFR2): 6.1 nM

C[C@@H](Oc1ccc2[nH]nc(-c3nc4c([nH]3)CN(C(=O)OCCN(C)C)C4)c2c1)c1c(Cl)cncc1Cl [Compound 54, 2-(dimethylamino)ethyl(R)-2-(5-(1-(3,5-dichloropyridin-4-yl)ethoxy)-1H-indazol-3-yl)-4,6-dihydropyrrolo[3,4-d]imidazole-5(1H)-carboxylate]
IC50 (FGFR1 V561M): 0.55 nM
IC50 (FGFR2 V564F): 0.15 nM
IC50 (FGFR3 V555M): 0.11 nM
IC50 (VEGFR2): 3.3 nM

CNC(=O)N1Cc2nc(-c3n[nH]c4ccc(O[C@H](C)c5c(Cl)cncc5Cl)cc34)[nH]c2C1 [Compound 33, (R)-2-(5-(1-(3,5-dichloropyridin-4-yl)ethoxy)-1H-indazol-3-yl)-N-methyl-4,6-dihydropyrrolo[3,4-d]imidazole-5(1H)-carboxamide]
IC50 (FGFR1 V561M): 1.3 nM
IC50 (FGFR2 V564F): 0.45 nM
IC50 (FGFR3 V555M): 0.46 nM
IC50 (VEGFR2): 6.3 nM

C[C@@H](Oc1ccc2[nH]nc(-c3nc4c([nH]3)CN(C(=O)CN3CCCC3)C4)c2c1)c1c(Cl)cncc1Cl [Compound 40, (R)-1-(2-(5-(1-(3,5-dichloropyridin-4-yl)ethoxy)-1H-indazol-3-yl)-4,6-dihydropyrrolo[3,4-d]imidazol-5(1H)-yl)-2-(pyrrolidin-1-yl)ethan-1-one]
IC50 (FGFR1 V561M): 0.39 nM
IC50 (FGFR2 V564F): 0.32 nM
IC50 (FGFR3 V555M): 0.26 nM
IC50 (VEGFR2): 4.7 nM

CC(Oc1ccc2[nH]nc(-c3nc4c([nH]3)CN(S(=O)(=O)c3cccnc3)C4)c2c1)c1c(Cl)cncc1Cl (stereo not shown) [Compound 7, 5-(1-(3,5-dichloropyridin-4-yl)ethoxy)-3-(5-(pyridin-3-ylsulfonyl)-1,4,5,6-tetrahydropyrrolo[3,4-d]imidazol-2-yl)-1H-indazole]
IC50 (FGFR1 V561M): 1.6 nM
IC50 (FGFR2 V564F): 3.1 nM
IC50 (FGFR3 V555M): 4 nM
IC50 (VEGFR2): 42.9 nM
